# Values joined by “and” are separate entries in the source; they are usually repeats but may differ in a detail not shown here. Equal entries are not always repeated. Active and inactive are the calls of the source. How the calls were made is not given here.
# System: HeLa cell count decrease
# Experiment: decrease in HeLa cell numbers, dose-response curve, cell enumeration, 50% inhibitory concentration (AID 1117347)
row,SMILES,IC50
1,COC(=O)[C@H]1[C@H]2C[C@@H]3c4[nH]c5cc(OC)ccc5c4CCN3C[C@H]2C[C@@H](OC(=O)/C=C/c2ccc(O)c(OC)c2)[C@@H]1OC,> 10000 nM (inactive)
2,C[C@@H]1C[C@@H]([C@H](O)CC2CC(=O)NC(=O)C2)C(=O)[C@@H](C)C1,542 nM
3,[O-][n+]1ccccc1SSc1cccc[n+]1[O-],842 nM
4,O=Cc1ccc(O)c(O)c1O,> 10000 nM (inactive)
5,C[n+]1c2cc(N)ccc2cc2ccc(N)cc21 (tested in a mixture with another compound),472 nM
6,CC(C)C[C@H](NC(=O)[C@H](CCc1ccccc1)NC(=O)CN1CCOCC1)C(=O)N[C@@H](Cc1ccccc1)C(=O)N[C@@H](CC(C)C)C(=O)[C@@]1(C)CO1,9.9 nM
7,CCCOc1ccc2nc(NC(=O)OC)[nH]c2c1,46.7 nM
8,C=CC(=O)Nc1cc2c(Nc3ccc(F)c(Cl)c3)ncnc2cc1OCCCN1CCOCC1,2090 nM
9,CCC(C)(C)C(=O)O[C@H]1C[C@@H](C)C=C2C=C[C@H](C)[C@H](CC[C@@H]3C[C@@H](O)CC(=O)O3)[C@H]21,> 10000 nM (inactive)
10,CCCCC(CC)CN=C(N)NC(N)=NCCCCCCN=C(N)NC(N)=NCC(CC)CCCC (stereo not given),18.6 nM
11,COc1cc(NC(C)CCCN)c2ncccc2c1 (stereo not given),> 10000 nM (inactive)
12,CC(C)OC(=O)OCOP(=O)(CO[C@H](C)Cn1cnc2c(N)ncnc21)OCOC(=O)OC(C)C,289 nM
13,CCN1/C(=C/C=C/c2sc3ccccc3[n+]2CC)Sc2ccccc21,36 nM
14,C[C@]12CC[C@@H]3c4ccc(O)cc4CC[C@H]3[C@@H]1CC[C@@H]2OC(=O)CCC1CCCC1,> 10000 nM (inactive)
15,CC(CC1c2ccccc2CCc2ccccc21)CN(C)C (stereo not given),> 10000 nM (inactive)
16,O=c1[nH]c(=O)n([C@H]2C[C@H](O)[C@@H](CO)O2)cc1I,> 10000 nM (inactive)
17,CO[C@@]12[C@H](COC(N)=O)C3=C(C(=O)C(C)=C(N)C3=O)N1C[C@@H]1N[C@@H]12,77.3 nM
18,O=C(CCBr)N1CCN(C(=O)CCBr)CC1,> 10000 nM (inactive)
19,CN(C)c1ccc2nc3ccc(=[N+](C)C)cc-3sc2c1,> 10000 nM (inactive)
20,O=C1[C@H]2CCCC[C@H]2C(=O)N1CCCCN1CCN(c2nsc3ccccc23)CC1,> 10000 nM (inactive)
21,Cn1cnc([N+](=O)[O-])c1Sc1ncnc2nc[nH]c12,> 10000 nM (inactive)
22,O=C(NOCC1CC1)c1ccc(F)c(F)c1Nc1ccc(I)cc1Cl,> 10000 nM (inactive)
23,Cc1ccc2nc(N)[nH]c(=O)c2c1Sc1ccncc1,> 10000 nM (inactive)

row,SMILES,IC50
1,Cc1ccccc1C(=O)Nc1ccc(C(=O)N2CCCC(N(C)C)c3ccccc32)cc1 (stereo not given),2910 nM
2,CCN(CC)CCCC(C)Nc1c2ccc(Cl)cc2nc2ccc(OC)cc12 (stereo not given),1330 nM
3,CCc1oc2ccccc2c1C(=O)c1cc(I)c(O)c(I)c1,> 10000 nM (inactive)
4,CC[C@]1(O)C[C@H]2CN(CCc3c([nH]c4ccccc34)[C@@](C(=O)OC)(c3cc4c(cc3OC)N(C=O)[C@H]3[C@@](O)(C(=O)OC)[C@H](OC(C)=O)[C@]5(CC)C=CCN6CC[C@]43[C@@H]65)C2)C1,6.5 nM
5,COc1ccc2cc3[n+](cc2c1OC)CCc1cc2c(cc1-3)OCO2,> 10000 nM (inactive)
6,COc1cc(-c2ccc(=O)[nH]n2)ccc1OC(F)F,9.2 nM
7,CCN(CC)CCNC(=O)c1c(C)[nH]c(/C=C2\C(=O)Nc3ccc(F)cc32)c1C,1280 nM
8,CC[n+]1c(-c2ccccc2)c2cc(N)ccc2c2ccc(N)cc21,> 10000 nM (inactive)
9,Cc1cc(O)c2ccccc2c1O,2460 nM
10,CCN(CC)CCOc1ccc(/C(=C(\Cl)c2ccccc2)c2ccccc2)cc1,> 10000 nM (inactive)
11,COC(=O)Nc1nc2ccc(S(=O)c3ccccc3)cc2[nH]1 (stereo not given),258 nM
12,Cc1nc(N)nc(N)c1-c1ccc(Cl)c(Cl)c1,1010 nM
13,CCc1oc2ccccc2c1C(=O)c1cc(Br)c(O)c(Br)c1,> 10000 nM (inactive)
14,COc1cc(NCc2ccc3nc(N)nc(N)c3c2C)cc(OC)c1OC,3810 nM
15,CCCCCCC[N+](CC)(CC)CCCCc1ccc(Cl)cc1,> 10000 nM (inactive)
16,CCCCc1ccc2nc(NC(=O)OC)[nH]c2c1,5.66 nM
17,CCCCOC(=O)c1ccc(N)cc1,> 10000 nM (inactive)
18,Clc1ccc(Nc2nnc(Cc3ccncc3)c3ccccc23)cc1,> 10000 nM (inactive)
19,O=c1[nH]c(=O)n([C@H]2C[C@H](O)[C@@H](CO)O2)cc1F,> 10000 nM (inactive)
20,CCCCCCCCCCCCCCCCNc1ccc(C(=O)O)cc1,> 10000 nM (inactive)
21,O=C(c1cc(O)c(O)c(O)c1)c1ccc(O)c(O)c1O,> 10000 nM (inactive)
22,O[C@@H](CNC[C@H](O)[C@H]1CCc2cc(F)ccc2O1)[C@@H]1CCc2cc(F)ccc2O1,5560 nM (inactive)
23,O=C1c2c(O)cccc2Cc2cccc(O)c21,> 10000 nM (inactive)

row,SMILES,IC50
1,CCCCC1C(=O)N(c2ccccc2)N(c2ccc(O)cc2)C1=O (stereo not given),1660 nM
2,Nc1nc(Cl)nc2c1ncn2[C@@H]1O[C@H](CO)[C@@H](O)[C@@H]1F,5.16 nM
3,CC(C)=CCOc1ccc(/C=C/C(=O)c2ccc(OCC=C(C)C)cc2OCC(=O)O)cc1,> 10000 nM (inactive)
4,COCCOC(=O)C1=C(C)NC(C)=C(C(=O)OC/C=C/c2ccccc2)C1c1cccc([N+](=O)[O-])c1 (stereo not given),> 10000 nM (inactive)
5,Nc1nc(=O)n([C@@H]2O[C@H](CO)[C@@H](O)[C@@H]2F)cc1I,8500 nM (inactive)
6,Cc1cc2c(C(C)C)c(O)c(O)c(C=O)c2c(O)c1-c1c(C)cc2c(C(C)C)c(O)c(O)c(C=O)c2c1O,3710 nM
7,CCCNCC(O)COc1ccccc1C(=O)CCc1ccccc1 (stereo not given),> 10000 nM (inactive)
8,O=C1C2CC=CCC2C(=O)N1SC(Cl)(Cl)Cl (stereo not given),1780 nM
9,Cc1ccc(CCn2c3c(c4cc(Cl)ccc42)CN(C)CC3)cn1,> 10000 nM (inactive)
10,CC(=O)O[C@@]12CO[C@@H]1C[C@H](O)[C@@]1(C)C(=O)[C@H](O)C3=C(C)[C@@H](OC(=O)[C@H](O)[C@@H](NC(=O)OC(C)(C)C)c4ccccc4)C[C@@](O)([C@@H](OC(=O)c4ccccc4)[C@H]21)C3(C)C,1 nM
11,COc1cccc2c1C(=O)c1c(O)c3c(c(O)c1C2=O)C[C@@](O)(C(=O)CO)CC3OC1CC(N2CCOC(OC)C2)C(O)C(C)O1 (stereo not given in full),4.68 nM
12,Cc1cc(CC(C)CC(C)(C)C)n(O)c(=O)c1 (stereo not given),133 nM
13,CCC(C)n1ncn(-c2ccc(N3CCN(c4ccc(OC[C@H]5CO[C@](Cn6cncn6)(c6ccc(Cl)cc6Cl)O5)cc4)CC3)cc2)c1=O (stereo not given in full),> 10000 nM (inactive)
14,CC(C)n1c(/C=C/[C@@H](O)C[C@@H](O)CC(=O)O)c(-c2ccc(F)cc2)c2ccccc21,> 10000 nM (inactive)
15,CCc1nc(N)nc(N)c1-c1ccc(Cl)cc1,> 10000 nM (inactive)
16,CC[C@H]1CN2CCc3cc(OC)c(OC)cc3[C@@H]2C[C@@H]1C[C@H]1NCCc2cc(OC)c(OC)cc21,32.7 nM
17,CCCCCCCCCCCC[N+](C)(C)Cc1ccccc1,> 10000 nM (inactive)
18,O=C(O)CCCc1ccc(N(CCCl)CCCl)cc1,> 10000 nM (inactive)
19,CCN(CC)CCNc1ccc(CO)c2sc3ccccc3c(=O)c12,5920 nM (inactive)
20,C1CN(P2(N3CC3)=NP(N3CC3)(N3CC3)=NP(N3CC3)(N3CC3)=N2)CCO1 (stereo not given),> 10000 nM (inactive)
21,Oc1c(I)cc(I)c2cccnc12,> 10000 nM (inactive)
22,O=[N+]([O-])c1ccc(O)c2ncccc12,295 nM
23,CC(C)c1c(C(=O)Nc2ccccc2)c(-c2ccccc2)c(-c2ccc(F)cc2)n1CC[C@@H](O)C[C@@H](O)CC(=O)O,> 10000 nM (inactive)

row,SMILES,IC50
1,Clc1ccccc1C(c1ccccc1)(c1ccccc1)n1ccnc1,> 10000 nM (inactive)
2,CCCSc1ccc2nc(NC(=O)OC)[nH]c2c1,37.7 nM
3,COc1ccc(-c2ccc3cc(C(=O)O)ccc3c2)cc1C12CC3CC(CC(C3)C1)C2,5490 nM (inactive)
4,CC(C)=CCC/C(C)=C/CC/C(C)=C/C(=O)OCC(=O)[C@@]1(O)CC[C@H]2[C@@H]3CCC4=CC(=O)C=C[C@]4(C)[C@H]3[C@@H](O)C[C@@]21C,59.5 nM
5,Cc1ccc(Nc2nccc(N(C)c3ccc4c(C)n(C)nc4c3)n2)cc1S(N)(=O)=O,> 10000 nM (inactive)
6,CN(C)CCOC(c1ccccc1)c1ccc(Br)cc1 (stereo not given),> 10000 nM (inactive)
7,CC[C@]1(O)C[C@@H]2CN(CCc3c([nH]c4ccccc34)[C@@](C(=O)OC)(c3cc4c(cc3OC)N(C)[C@H]3[C@@](O)(C(=O)OC)[C@H](OC(C)=O)[C@]5(CC)C=CCN6CC[C@]43[C@@H]65)C2)C1,5.21 nM and 2.6 nM
8,CO[C@@H]1[C@@H](OC)[C@H](C)[C@@](O)(CC(=O)O)O[C@H]1[C@H](C)[C@H]1O[C@@]2(CC[C@@](C)([C@H]3CC[C@@](C)([C@@H]4O[C@@H]([C@H]5O[C@](C)(O)[C@H](C)C[C@@H]5C)C[C@@H]4OC4C[C@H](OC)[C@@H](OC)[C@H](C)O4)O3)O2)C[C@H](O)[C@H]1C (stereo not given in full),2750 nM
9,CCN(CC)CCOc1ccc(C(O)(Cc2ccc(Cl)cc2)c2ccc(C)cc2)cc1 (stereo not given),> 10000 nM (inactive)
10,CN1CC[C@H](c2c(O)cc(O)c3c(=O)cc(-c4ccccc4Cl)oc23)[C@H](O)C1,21.2 nM
11,CC[C@@H]([C@H](C)O)n1ncn(-c2ccc(N3CCN(c4ccc(OC[C@@H]5CO[C@@](Cn6cncn6)(c6ccc(F)cc6F)C5)cc4)CC3)cc2)c1=O,> 10000 nM (inactive)
12,COc1ccc(-c2nc3ccc(C4=NNC(=O)CC4C)cc3[nH]2)cc1 (stereo not given),7230 nM (inactive)
13,CN1CCC(Nc2ncc3ncnc(Nc4ccc(F)c(Cl)c4)c3n2)CC1,> 10000 nM (inactive)
14,CCCCCCCCCCCCCCCCCCNC(=O)OC1CCN(C(=O)OC[C@H](COC(=O)N(Cc2cccc[n+]2CC)C(=O)c2ccccc2OC)OC)CC1,6140 nM (inactive)
15,Cc1nc(Nc2ncc(C(=O)Nc3c(C)cccc3Cl)s2)cc(N2CCN(CCO)CC2)n1,875 nM
16,CC(=O)Oc1ccccc1C(=O)Nc1ncc([N+](=O)[O-])s1,> 10000 nM (inactive)
17,COc1ccc(/C=C/C(=O)c2ccc(OC)cc2OC)cc1,708 nM
18,CC(=O)Oc1ccc(C2(c3ccc(OC(C)=O)cc3)Oc3ccccc3NC2=O)cc1,5750 nM (inactive)
19,Cc1ccc2c(c1)c1c3n2CCNC3CCC1 (stereo not given),> 10000 nM (inactive)
20,O=C(CCl)c1ccc(Cl)cc1Cl,350 nM
21,COC(=O)Nc1nc2ccc(C(=O)c3ccccc3)cc2[nH]1,54.2 nM
